Assay results taken from patent publication US20240033234A1, “THERAPEUTIC COMPOUNDS, FORMULATIONS, AND USE THEREOF” (Tvardi Therapeutics, Inc., priority 2022, published 2024).
Several values for one entry are separate records, joined by “and”; a condition that tells them apart may be missing. Identical values can stand only once.

Experiment: Accelerated and long term stability study of TTI-101 (Batch A, Batch B): HPLC assay, purity, impurities and water content after storage at 5° C., 25° C./60% RH, 30° C./65% RH or 40° C./75% RH
Type: physicochemical
Protocol: Exemplary HPLC conditions: diluent was 0.1% trifluoroacetic acid (TFA) in acetonitrile, Mobile Phase A was 0.05% TFA in water, and Mobile Phase B was 0.05% TFA in acetonitrile, column (Agilent, Eclipse XDB-C18, 3.0×100 mm, particle size 1.8 μm), flow (0.425 mL/min), and detector (280 nm diode array).
Batch A was prepared analogously using Method 3 as described in Example 1. Batch B was prepared according to Method 5 as described in Example 1.
Samples of TTI-101 were stored at 5° C., 25° C./60% RH, 30° C./65% RH, or 40° C./75% RH. TTI-101 was stored in an LDPE bag enclosed with a Nylon cable tie and then transferred to another LDPE bag and enclosed with a Nylon cable tie. The enclosure was put into an HDPE bottle and closed with a polyethylene-lined polypropylene cap. The samples were stored under the above-identified conditions.
The samples were analyzed using HPLC with the exemplary conditions identified above. Relative retention time (RRT) for Compound 5 was about 0.83, Compound 4 was about 1.05-1.06, Compound 6 was about 1.15-1.17, and compound of formula (IV) was about 0.99.
• NA not applicable • NQ ≥0.02% and <0.05% • Avg average • Cmpd compound • — no peak • M month • RRT relative retention time

[1] = Storage 25° C./60% RH, 6 M, Prep P1-P2
[2] = Storage 25° C./60% RH, 6 M, Prep P1-P2, listed as Batch B
[3] = Storage 25° C./60% RH, 9 M, Avg
[4] = Storage 25° C./60% RH, 9 M, Prep P1-P2
[5] = Storage 25° C./60% RH, 9 M, Prep P1-P2, listed as Batch B
[6] = Storage 40° C./75% RH, 0 M, Avg
[7] = Storage 40° C./75% RH, 0 M, Prep P1-P5
[8] = Storage 40° C./75% RH, 0 M, Prep P1-P5, listed as Batch B
[9] = Storage 40° C./75% RH, 1 M, Avg
[10] = Storage 40° C./75% RH, 1 M, Prep P1-P2
[11] = Storage 40° C./75% RH, 3 M, Avg
[12] = Storage 40° C./75% RH, 3 M, Prep P1-P2
[13] = Storage 40° C./75% RH, 3 M, Prep P1-P2, listed as Batch B
[14] = Storage 40° C./75% RH, 6 M, Avg
[15] = Storage 40° C./75% RH, 6 M, Prep P1-P2
[16] = Storage 40° C./75% RH, 6 M, Prep P1-P2, listed as Batch B

Impurity RRT 0.84 [1]: NQ (≥0.02% and <0.05%)
Impurity RRT 0.87 [1]: NQ (≥0.02% and <0.05%)
Impurity RRT 1.05 [1]: NQ (≥0.02% and <0.05%)
Impurity RRT 1.06 (Cmpd 4) [1]: NQ (≥0.02% and <0.05%)
Impurity RRT 1.39 [1]: NQ (≥0.02% and <0.05%)
Water Content [1]: <0.04%
Assay [2]: 99.0% and 98.5%
Impurity RRT 1.17 (Cmp 6) [2]: 0.23 area % and 0.25 area %
Purity [2]: 99.6% and 99.5%
Assay [3]: 99.0%
Impurities Total [3]: 0.4 area %
Impurity RRT 0.84 [3]: NQ (≥0.02% and <0.05%)
Impurity RRT 0.87 [3]: NQ (≥0.02% and <0.05%)
Impurity RRT 0.99 [3]: 0.12 area %
Impurity RRT 1.02 [3]: 0.06 area %
Impurity RRT 1.16 (Cmp 6) [3]: 0.18 area %
Impurity RRT 1.39 [3]: NQ (≥0.02% and <0.05%)
Purity [3]: 99.5%
Water Content [3]: 0.1%
Impurities Total [4]: 0.4 area %
Impurity RRT 0.84 [4]: NQ (≥0.02% and <0.05%)
Impurity RRT 0.87 [4]: NQ (≥0.02% and <0.05%)
Impurity RRT 1.02 [4]: 0.06 area %
Impurity RRT 1.16 (Cmp 6) [4]: 0.18 area %
Impurity RRT 1.39 [4]: NQ (≥0.02% and <0.05%)
Water Content [4]: 0.1%
Assay [5]: 99.7% and 98.2%
Impurity RRT 0.99 [5]: 0.12 area % and 0.13 area %
Purity [5]: 99.6% and 99.5%
Assay [6]: 99.4%
Impurities Total [6]: 0.1 area %
Impurity RRT 0.61 [6]: 0.05 area %
Impurity RRT 0.86 [6]: NQ (≥0.02% and <0.05%)
Impurity RRT 0.88 [6]: NQ (≥0.02% and <0.05%)
Impurity RRT 0.99 [6]: NQ (≥0.02% and <0.05%)
Impurity RRT 1.16 (Cmp 6) [6]: 0.07 area %
Purity [6]: 99.8%
Water Content [6]: 0.1%
Water Content (Storage 40° C./75% RH, 0 M, Prep P1-P2): 0.1%
Impurities Total [7]: 0.1 area %
Impurity RRT 0.86 [7]: NQ (≥0.02% and <0.05%)
Impurity RRT 0.99 [7]: NQ (≥0.02% and <0.05%)
Purity [7]: 99.8%
Impurity RRT 1.16 (Cmp 6) [8]: 0.08 area % and 0.07 area %
Assay [9]: 99.2%
Impurities Total [9]: 0.6 area %
Impurity RRT 0.80 [9]: NQ (≥0.02% and <0.05%)
Impurity RRT 0.84 [9]: NQ (≥0.02% and <0.05%)
Impurity RRT 0.87 [9]: NQ (≥0.02% and <0.05%)
Impurity RRT 0.99 [9]: 0.14 area %
Impurity RRT 1.02 [9]: 0.06 area %
Impurity RRT 1.05 [9]: NQ (≥0.02% and <0.05%)
Impurity RRT 1.06 (Cmpd 4) [9]: NQ (≥0.02% and <0.05%)
Impurity RRT 1.17 (Cmp 6) [9]: 0.38 area %
Impurity RRT 1.39 [9]: 0.05 area %
Purity [9]: 99.3%
Water Content [9]: 0.1%
Impurities Total [10]: 0.6 area %
Impurity RRT 0.80 [10]: NQ (≥0.02% and <0.05%)
Impurity RRT 0.84 [10]: NQ (≥0.02% and <0.05%)
Impurity RRT 0.87 [10]: NQ (≥0.02% and <0.05%)
Impurity RRT 0.99 [10]: 0.14 area %
Impurity RRT 1.02 [10]: 0.06 area %
Impurity RRT 1.05 [10]: NQ (≥0.02% and <0.05%)
Impurity RRT 1.06 (Cmpd 4) [10]: NQ (≥0.02% and <0.05%)
Impurity RRT 1.17 (Cmp 6) [10]: 0.38 area %
Impurity RRT 1.39 [10]: 0.05 area %
Purity [10]: 99.3%
Water Content [10]: 0.1%
Assay (Storage 40° C./75% RH, 1 M, Prep P1-P2, listed as Batch B): 99.1% and 99.4%
Assay [11]: 98.7%
Impurities Total [11]: 1.0 area %
Impurity RRT 0.38 [11]: NQ (≥0.02% and <0.05%)
Impurity RRT 0.80 [11]: NQ (≥0.02% and <0.05%)
Impurity RRT 0.84 [11]: NQ (≥0.02% and <0.05%)
Impurity RRT 0.87 [11]: NQ (≥0.02% and <0.05%)
Impurity RRT 0.99 [11]: 0.24 area %
Impurity RRT 1.02 [11]: 0.19 area %
Impurity RRT 1.06 (Cmpd 4) [11]: NQ (≥0.02% and <0.05%)
Impurity RRT 1.17 (Cmp 6) [11]: 0.37 area %
Impurity RRT 1.39 [11]: 0.16 area %
Purity [11]: 98.9%
Water Content [11]: 0.04%
Impurity RRT 0.38 [12]: NQ (≥0.02% and <0.05%)
Impurity RRT 0.80 [12]: NQ (≥0.02% and <0.05%)
Impurity RRT 0.84 [12]: NQ (≥0.02% and <0.05%)
Impurity RRT 0.87 [12]: NQ (≥0.02% and <0.05%)
Impurity RRT 0.99 [12]: 0.24 area %
Impurity RRT 1.02 [12]: 0.19 area %
Impurity RRT 1.39 [12]: 0.16 area %
Purity [12]: 98.9%
Assay [13]: 98.5% and 99.0%
Impurities Total [13]: 1.0 area % and 0.9 area %
Impurity RRT 1.17 (Cmp 6) [13]: 0.39 area % and 0.35 area %
Water Content [13]: <0.04% and 0.04%
Assay [14]: 98.4%
Impurities Total [14]: 1.0 area %
Impurity RRT 0.39 [14]: NQ (≥0.02% and <0.05%)
Impurity RRT 0.80 [14]: NQ (≥0.02% and <0.05%)
Impurity RRT 0.84 [14]: NQ (≥0.02% and <0.05%)
Impurity RRT 0.87 [14]: NQ (≥0.02% and <0.05%)
Impurity RRT 0.99 [14]: NQ (≥0.02% and <0.05%)
Impurity RRT 1.02 [14]: 0.34 area %
Impurity RRT 1.06 (Cmpd 4) [14]: NQ (≥0.02% and <0.05%)
Impurity RRT 1.17 (Cmp 6) [14]: 0.30 area %
Impurity RRT 1.27 [14]: NQ (≥0.02% and <0.05%)
Impurity RRT 1.39 [14]: 0.34 area %
Purity [14]: 98.9%
Water Content [14]: <0.04%
Impurities Total [15]: 1.0 area %
Impurity RRT 0.39 [15]: NQ (≥0.02% and <0.05%)
Impurity RRT 0.80 [15]: NQ (≥0.02% and <0.05%)
Impurity RRT 0.84 [15]: NQ (≥0.02% and <0.05%)
Impurity RRT 0.87 [15]: NQ (≥0.02% and <0.05%)
Impurity RRT 0.99 [15]: NQ (≥0.02% and <0.05%)
Impurity RRT 1.02 [15]: 0.34 area %
Impurity RRT 1.06 (Cmpd 4) [15]: NQ (≥0.02% and <0.05%)
Impurity RRT 1.39 [15]: 0.34 area %
Water Content [15]: <0.04%
Assay [16]: 98.6% and 98.2%
Impurity RRT 1.17 (Cmp 6) [16]: 0.31 area % and 0.29 area %
Purity [16]: 98.8% and 98.9%
stability (over 24 months): excellent stability
SMILES: COc1ccc(S(=O)(=O)Nc2cc(-c3c(O)ccc4ccccc34)c(O)c3ccccc23)cc1 [TTI-101]
Assay [8]: 99.0% and 100.5% and 99.3% and 99.5% and 98.8%
